Data from paper PMC11154717, “Evaluation of Novel Spiro-pyrrolopyridazine Derivatives as Anticancer Compounds: In Vitro Selective Cytotoxicity, Induction of Apoptosis, EGFR Inhibitory Activity, and Molecular Docking Analysis” (ACS Omega, 2024).
Where two headings read alike, the source gives them in different places.

Columns and labels:
[1] = biological target: EGFR (Homo sapiens, UniProt P00533); experiment: EGFR kinase inhibitory assay (HTRF); format: biochemical; conditions: read-out: EGFR kinase inhibition IC50
Method: The inhibitory effects of the target compounds on various EGFR kinases were evaluated through a well-established homogeneous time-resolved fluorescence (HTRF) method-based assay, utilizing the HTRF KinEASE-TK kit (cat #62TK0PEC, Cisbio).[17] SPP10 underwent screening at progressively diluted concentrations in the presence of 1% dimethyl sulfoxide (DMSO), preceded by a 5 min preincubation of the kinase and compounds. […] Following a 1 h plate incubation, readings were taken on a microplate reader using standard HTRF settings. IC50 values were determined using GraphPad Prism 5.0 software. Each reaction was carried out in duplicate, and a minimum of three independent determinations were performed. The data were analyzed using GraphPad Prism.

[2] = test system: nontumorigenic HEK-293 cells; experiment: XTT cell viability assay, HEK-293; format: cell-based, human; conditions: Homo sapiens, HEK293, 72 h
Method: (§1) Human breast cancer (MCF-7), human lung cancer (H69AR), and human prostate cancer (PC-3) human nontumorigenic HEK-293 cells were obtained from the Health Protection Agency (UK) and Interlab Cell Line Collection (ICLC, Italy). Cells were maintained in RPMI medium (Sigma) containing 10% heat-inactivated fetal bovine serum, 1% penicillin, and 1% L-glutamine in a 37° humidified CO2 incubator.
(§2) XTT (2,3-bis(2-methoxy-4-nitro-5-sulfophenyl)-2H-tetrazolium-5-carboxanilide) cell viability test was used to determine the cytotoxic activities of SPPs, which were dissolved in dimethyl sulfoxide (DMSO). Cells were seeded in 96-well plates at a density of 10^4/well and treated with increasing concentrations of SPP (1–250 μM) for 24, 48, and 72 h. After the incubation period, 100 μL of XTT was added to all experimental wells, and 96-well plates were incubated at 37 °C for 4 h. After the color change was observed, the absorbance values of the wells were recorded at 570 nm in the microplate reader (Tecan). The IC50 values for all synthesized compounds, representing the concentration needed to inhibit 50% of cancer cell proliferation, were determined using Biosoft CalcuSyn 2.1 software.[13] The following formula was used to calculate selectivity indexes (SIs), which represent the cytotoxic selectivity of SPPs against cancer cells and normal cells (HEK-293): […]

[3] = test system: Bcl-2; experiment: Western blot, Bcl-2 protein level; format: cell-based, human
Method: (§3) For the extraction of total proteins, the M-PER Mammalian Protein Extraction Reagent from Thermo Fisher was utilized. Specifically, cells were treated with 250 μL of the extraction reagent and incubated at room temperature for 10 min with gentle shaking at 300 rpm. After this step, the cell suspension underwent centrifugation at 14,000g for 10 min, and the resulting supernatant was collected. Determination of the protein concentration was carried out using the Bradford method. Following this, protein separation was accomplished through SDS polyacrylamide gel electrophoresis, followed by transfer to nitrocellulose membranes. Post transfer, the membranes underwent blocking with 5% nonfat dry milk for 1 h and were subjected to three washes with Tris-buffered saline (TBS). Incubation with primary antibodies (Bcl-2: Anti-Bcl-2 antibody [ab196495, Abcam]; Bax: Anti-Bax antibody [ab216494, Abcam]; cytochrome c: Anticytochrome c antibody [ab4051]; EGFR: Anti-EGFR antibody [ab32077]) occurred overnight at 4 °C. β-Actin served as the loading control. After the washing steps, the membranes were exposed to secondary antibodies for 1 h at room temperature (1:1000 dilution). Visualization of protein bands was performed using the Kodak Gel Logic 1500 imaging system, and quantification was carried out using ImageJ software.[16]

[4] = test system: H69AR lung cancer cells; experiment: Annexin V/PI flow cytometric detection of apoptosis, H69AR; format: cell-based, human; conditions: treated at IC50, 72 h
From the text: (§4) During apoptosis, PS translocates from the inner to outer regions of the plasma membrane, making it a valuable marker for apoptosis identification. Annexin V specifically attaches to PS present on the surface of apoptotic cells. To differentiate between apoptotic and viable cells with intact membranes, a secondary dye such as […] (PI) is employed. By assessing fluorescence patterns, viable cells (annexin V- and PI-) and apoptotic cells (annexin V+ and PI+) can be distinguished, providing insights into their respective percentages. We used FITC Annexin V Apoptosis Detection Kit I (BD Pharmingen).[15] […] Subsequently, cells were washed with cold PBS, resuspended in […] of 1× Binding Buffer, and stained with 5 μL of Annexin V FITC and 5 μL of PI. After vortexing, the solution was incubated at room temperature (25 °C) for 15 min in the dark. At the end of the incubation, 400 μL of 1× Binding Buffer was added to each sample, and apoptosis was assessed using flow cytometry (BD Accuri C6 Flow Cytometer).

[5] = test system: PC-3 prostate cancer cells; experiment: Annexin V/PI flow cytometric detection of apoptosis, PC-3; format: cell-based, human; conditions: PC-3, treated at IC50, 72 h
From the text: as §4

[6] = test system: MCF-7 breast cancer cells; experiment: XTT cell viability assay, MCF-7; format: cell-based, human
Method: as §1, §2

[7] = test system: cytochrome c; experiment: Western blot, cytochrome c protein level; format: cell-based, human
Method: as §3

[8] = test system: EGFRWT; experiment: Western blot, EGFR protein; format: cell-based, human; conditions: 72 h, MCF-7, H69AR and PC-3 cells
Method: as §3

[9] = test system: Bax; experiment: Western blot, Bax protein level; format: cell-based, human
Method: as §3

[10] = test system: PC-3 prostate cancer cells; experiment: XTT cell viability assay, PC-3; format: cell-based, human
Method: as §1, §2

[11] = test system: H69AR lung cancer cells; experiment: XTT cell viability assay, H69AR; format: cell-based, human
Method: as §1, §2

[12] = biological target: EGFRT790M (Homo sapiens, UniProt P00533, T790M); experiment: EGFRT790M kinase inhibitory assay (HTRF); format: biochemical; conditions: read-out: EGFRT790M kinase inhibition IC50
Method: The inhibitory effects of the target compounds on various EGFR kinases were evaluated through a well-established homogeneous time-resolved fluorescence (HTRF) method-based assay, utilizing the HTRF KinEASE-TK kit (cat #62TK0PEC, Cisbio).[17] SPP10 underwent screening at progressively diluted concentrations in the presence of 1% dimethyl sulfoxide (DMSO), preceded by a 5 min preincubation of the kinase and compounds. Initiation of all reactions occurred by adding ATP and TK-substrate-biotin, followed by a 60 min incubation at room temperature and subsequent quenching with a stop buffer containing 62.5 nM Strep-XL665 and TK antibody (Ab)-Cryptate. Following a 1 h plate incubation, readings were taken on a microplate reader using standard HTRF settings. IC50 values were determined using GraphPad Prism 5.0 software. Each reaction was carried out in duplicate, and a minimum of three independent determinations were performed. The data were analyzed using GraphPad Prism.

[13] = test system: MCF-7 breast cancer cells; experiment: Annexin V/PI flow cytometric detection of apoptosis, MCF-7; format: cell-based, human; conditions: MCF-7, treated at IC50, 72 h
From the text: as §4

Sequence of EGFRT790M (P00533 25-1210 T790M): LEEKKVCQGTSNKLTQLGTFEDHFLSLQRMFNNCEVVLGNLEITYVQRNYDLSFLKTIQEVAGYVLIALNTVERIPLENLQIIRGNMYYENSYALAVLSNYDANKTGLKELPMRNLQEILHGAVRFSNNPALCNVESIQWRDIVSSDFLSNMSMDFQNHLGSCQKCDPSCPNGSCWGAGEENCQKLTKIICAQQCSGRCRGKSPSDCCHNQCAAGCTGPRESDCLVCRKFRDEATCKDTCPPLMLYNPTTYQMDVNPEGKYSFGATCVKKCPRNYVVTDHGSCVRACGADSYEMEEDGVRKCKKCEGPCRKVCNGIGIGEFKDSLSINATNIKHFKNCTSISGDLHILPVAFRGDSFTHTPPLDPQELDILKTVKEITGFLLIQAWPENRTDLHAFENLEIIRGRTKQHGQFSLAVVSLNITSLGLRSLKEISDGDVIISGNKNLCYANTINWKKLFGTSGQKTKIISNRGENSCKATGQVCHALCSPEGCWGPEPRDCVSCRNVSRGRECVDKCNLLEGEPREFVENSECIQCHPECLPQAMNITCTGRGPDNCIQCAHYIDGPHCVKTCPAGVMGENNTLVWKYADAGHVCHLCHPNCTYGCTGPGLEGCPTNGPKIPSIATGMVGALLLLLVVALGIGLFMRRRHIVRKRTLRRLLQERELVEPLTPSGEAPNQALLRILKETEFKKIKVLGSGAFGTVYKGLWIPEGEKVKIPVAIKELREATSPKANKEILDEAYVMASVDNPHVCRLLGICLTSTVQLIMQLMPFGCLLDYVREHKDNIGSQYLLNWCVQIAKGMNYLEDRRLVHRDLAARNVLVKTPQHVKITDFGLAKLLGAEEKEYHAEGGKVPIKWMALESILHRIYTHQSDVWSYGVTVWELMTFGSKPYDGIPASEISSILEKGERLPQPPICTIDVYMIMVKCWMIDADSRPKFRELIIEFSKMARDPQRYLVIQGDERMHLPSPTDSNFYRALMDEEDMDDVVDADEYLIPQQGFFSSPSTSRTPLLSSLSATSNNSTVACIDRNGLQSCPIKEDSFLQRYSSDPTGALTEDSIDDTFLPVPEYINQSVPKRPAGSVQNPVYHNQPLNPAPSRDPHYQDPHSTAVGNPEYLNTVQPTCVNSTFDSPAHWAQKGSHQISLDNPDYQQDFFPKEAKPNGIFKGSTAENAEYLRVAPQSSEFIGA
Sequence of EGFR (P00533 25-1210): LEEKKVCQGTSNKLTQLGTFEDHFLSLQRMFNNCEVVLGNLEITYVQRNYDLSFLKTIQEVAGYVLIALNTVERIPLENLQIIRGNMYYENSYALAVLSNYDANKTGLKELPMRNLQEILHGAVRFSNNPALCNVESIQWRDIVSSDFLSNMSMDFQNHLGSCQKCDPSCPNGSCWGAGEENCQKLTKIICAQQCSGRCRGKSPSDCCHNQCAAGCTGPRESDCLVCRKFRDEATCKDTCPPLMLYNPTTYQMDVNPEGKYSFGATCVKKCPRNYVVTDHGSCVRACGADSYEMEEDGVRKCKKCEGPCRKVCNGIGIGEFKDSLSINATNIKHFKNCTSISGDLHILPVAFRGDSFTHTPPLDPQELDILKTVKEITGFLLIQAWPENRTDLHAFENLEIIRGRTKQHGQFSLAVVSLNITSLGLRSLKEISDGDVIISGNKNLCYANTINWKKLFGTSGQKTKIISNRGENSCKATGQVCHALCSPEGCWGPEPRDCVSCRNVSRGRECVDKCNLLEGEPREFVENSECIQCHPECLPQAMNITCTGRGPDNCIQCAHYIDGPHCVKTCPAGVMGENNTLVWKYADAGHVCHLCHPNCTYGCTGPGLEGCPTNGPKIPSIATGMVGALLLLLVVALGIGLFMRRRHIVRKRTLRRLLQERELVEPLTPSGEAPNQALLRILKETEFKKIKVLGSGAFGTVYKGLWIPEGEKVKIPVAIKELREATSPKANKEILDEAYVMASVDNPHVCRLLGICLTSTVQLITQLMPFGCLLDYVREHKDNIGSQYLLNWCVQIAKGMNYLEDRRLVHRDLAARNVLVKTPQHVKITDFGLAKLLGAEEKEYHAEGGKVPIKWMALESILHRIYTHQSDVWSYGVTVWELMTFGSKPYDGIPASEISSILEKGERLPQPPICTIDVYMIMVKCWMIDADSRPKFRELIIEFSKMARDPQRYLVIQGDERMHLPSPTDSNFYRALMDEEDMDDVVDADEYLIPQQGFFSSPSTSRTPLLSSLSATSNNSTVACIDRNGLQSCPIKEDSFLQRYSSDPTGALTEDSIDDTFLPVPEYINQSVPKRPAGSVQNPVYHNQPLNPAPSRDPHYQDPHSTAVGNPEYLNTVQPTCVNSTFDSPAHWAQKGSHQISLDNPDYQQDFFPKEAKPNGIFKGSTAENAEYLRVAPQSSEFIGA

Which results are given for c1ccc(-c2nnc(-c3ccccc3)c3c2C(c2ccsc2)=NC32CCCCC2)cc1 [SPP10]?
IC50 ([1]; in H69AR cells): 200 nM; IC50 ([1]; in MCF-7 cells): 400 ± 120 nM; IC50 ([1]; in PC-3 cells): 420 ± 800 nM; IC50 ([1]; span in cancer cells): 200 to 420 nM; IC50 [2]: 26800 ± 400 nM; Bcl-2 protein level inhibited by ([3]; H69AR, IC50 of SPP10, 72 h): 2.6 fold; Bcl-2 protein level inhibited by ([3]; MCF-7, IC50 of SPP10, 72 h): 2.3 fold; Bcl-2 protein level inhibited by ([3]; PC-3, IC50 of SPP10, 72 h): 3.2 fold; percentage of early apoptotic cells [4]: 25.6%; percentage of late apoptotic cells [4]: 61.2%; percentage of early apoptotic cells [5]: 21.8%; percentage of late apoptotic cells [5]: 64.9%; IC50 ([6]; Homo sapiens, MCF7, XTT, 72 h): 2310 ± 300 nM; selectivity index (SI) MCF-7 ([6]; versus HEK-293): 11.6; Cytochrome c level induced by ([7]; H69AR, IC50 of SPP10, 72 h): 3.6 fold; Cytochrome c level induced by ([7]; MCF-7, IC50 of SPP10, 72 h): 3.8 fold; Cytochrome c level induced by ([7]; PC-3, IC50 of SPP10, 72 h): 4.4 fold; inhibition of EGFRWT protein (western blot) [8]: concentration-dependent inhibition; Bax protein level induced by ([9]; H69AR, IC50 of SPP10, 72 h): 4.1 fold; Bax protein level induced by ([9]; MCF-7, IC50 of SPP10, 72 h): 3.4 fold; Bax protein level induced by ([9]; PC-3, IC50 of SPP10, 72 h): 5.2 fold; IC50 ([10]; Homo sapiens, XTT, 72 h): 4200 ± 200 nM; selectivity index (SI) PC-3 ([10]; versus HEK-293): 6.38; IC50 ([11]; Homo sapiens, H69AR, XTT, 72 h): 3160 ± 800 nM; selectivity index (SI) H69AR ([11]; versus HEK-293): 8.48; IC50 ([12]; in H69AR cells): 250 ± 700 nM; IC50 ([12]; in MCF-7 cells): 370 ± 200 nM; IC50 ([12]; in PC-3 cells): 390 ± 200 nM; percentage of early apoptotic cells [13]: 28.7%; percentage of late apoptotic cells [13]: 59.3%
